Values of other authors as cited in US9248119B2, “Modified release dosage forms of xanthine oxidoreductase inhibitor or xanthine oxidase inhibitors” (Takeda Pharmaceuticals U.S.A., Inc., priority 2010, dated 2016).

Assays:
[1] = test system: renal injury and hypertension associated with hyperuricemia; conditions: Mazzali M, et al.; cited from earlier work
xanthine oxidoreductase = conditions: cited from earlier work

| SMILES | protection against renal injury and hypertension associated with hyperuricemia [1] | inhibition of xanthine oxidoreductase activity (xanthine oxidoreductase) |
| --- | --- | --- |
| Oc1ncnc2[nH]ncc12 [Allopurinol] | prevent the renal injury and hypertension |  |
| CCc1oc2ccccc2c1C(=O)c1cc(I)c(O)c(I)c1 [Benziodarone] | lower | does not inhibit |
